Here are results for 46 compounds from the Deep4Chem optical property database.

Each structure is given as a SMILES string.

This series in a line: solvent given as SMILES.
Where [1] appears, read: in O=P(c1ccccc1)(c1ccccc1)c1ccccc1Oc1ccccc1P(=O)(c1ccccc1)c1ccccc1.

Where the note is “in C1CCOC1”, `COc1ccc(-c2cc3c(cc2OC)-c2c(c4c(c5c2-c2cc(OC)c(-c6ccc(OC)cc6)cc2C5)C(=O)N(CCC(C)C)C4=O)C3)cc1` yielded a fluorescence lifetime of 4.42 ns.

`Cc1ccc(/C2=c3\cc/c(o3)=C(\c3ccc(C)cc3)c3ccc([nH]3)-c3ccc4n3[B-](F)(F)[N+]3=C(C=CC3=C4c3ccco3)c3ccc2[nH]3)cc1` returned a fluorescence lifetime (in ClC(Cl)Cl) of 4.1 ns.

In turn, `COc1cc(OC)cc(C2=[O+][B-](F)(F)OC(c3cccs3)=C2)c1` displayed a fluorescence lifetime (in ClCCl) of 4.53 ns.

Under “in CC1CCCCC1”, `c12c3c4c5c1c1c6c7c2c2c8c3c3c9c4c4c%10c5c5c1c1c6c6c%11c%12c%13c%14c%15c%16c%17c%14c%14c%18c%13c%11c1c1c5c%10c5c(c%14c%10c%17c%11c%13c%16c%14c%16c%15c%12c%12c%16c(c2c7c%126)c2c8c3c(c%13c%142)c2c9c4c5c%10c%112)c%181` returned a fluorescence lifetime of 0.65 ns.

Where the note is “in CS(C)=O”, `O=S(=O)([O-])CCCCN1C=C/C(=C/C=C/C=C/c2cc[n+](CCCCS(=O)(=O)[O-])c3ccccc23)c2ccccc21` showed a fluorescence lifetime of 0.36 ns.

As to `CC1(C)C(=O)C=Cc2ccc(O)cc21`, the fluorescence lifetime (in O) turned out to be 2.45 ns.

For the compound `CSc1ccc(C#Cc2ccc(C#Cc3ccc(C#Cc4ccccc4C#N)cc3C#N)cc2C#N)cc1`, the fluorescence lifetime (in ClC(Cl)Cl) was 1.29 ns.

Consider `CN(C)c1ccc(-c2cc3c(s2)c(C(=O)c2ccccc2)cc(=O)n3Cc2ccccc2)cc1`, for which, under “in ClCCl”, the fluorescence lifetime is 1.01 ns.

For the compound `C(#Cc1nccnc1C#Cc1ccccc1)c1ccccc1`, where the note is “in CC#N”, the fluorescence lifetime was 0.336 ns.

For the compound `Cc1c[nH]c(=O)[nH]c1=O`, under “in CC#N”, the fluorescence lifetime was 0.0002 ns.

Compound `CCOC(=O)CN(CC(=O)OCC)c1ccc(-c2cc(-c3ccncc3)nc(-c3ccncc3)c2)cc1` had a fluorescence lifetime (in CC#N) of 5.84 ns; a fluorescence lifetime (in CCOC(C)=O) of 3.77 ns; a fluorescence lifetime (in CN(C)C=O) of 6.33 ns; a fluorescence lifetime (in CS(C)=O) of 6.78 ns; a fluorescence lifetime (in c1ccccc1) of 2 ns.

`CCCc1c(C(=O)c2ccc3c4c(cccc24)-c2cccc4c2C3CC=C4)c2ccc3cccc4c5cccc6ccc1c(c65)c2c34` (configuration not stated) came in with a fluorescence lifetime (in ClCCl) of 1.04 ns.

Take `O=C(O)c1ccc2cc3cc(C(=O)O)ccc3cc2c1`: the fluorescence lifetime is, setting by setting: (in C1CCOC1) 12.3 ns; (in CN(C)C=O) 12.5 ns.

Turning to `CC(C)(C)c1ccc2c(c1)[nH]c1c3[nH]c4cc(C(C)(C)C)ccc4c3c3nsnc3c21`, the fluorescence lifetime came out at 2.29 ns (in CN(C)C=O), 1.5 ns (in Cc1ccccc1) and 2.61 ns (in ClCCl).

In the case of `O=Cc1ccc(C#CC(C#Cc2ccc(C=O)o2)=Cc2ccc(C=C(C#Cc3ccc(C=O)o3)C#Cc3ccc(C=O)o3)s2)o1`, the fluorescence lifetime (in ClC(Cl)Cl) is 0.4 ns.

As for `COc1ccc(/C=C/C2=CC(/C=C/c3ccc(OC)cc3)=[O+][B-](F)(F)O2)cc1`, the fluorescence lifetime came to 1.55 ns (in CC#N); 1.49 ns (in CC(C)=O); 0.88 ns (in CCOC(C)=O); 0.7 ns (in CCOCC); 0.5 ns (in ClC(Cl)(Cl)Cl); 1.3 ns (in ClCCl).

As for `CCCCn1c(-c2ccc(-c3nnc(-c4ccc(-c5nc6ccccc6n5CCCC)cc4)o3)cc2)nc2ccccc21`, where the note is “in ClCCl”, the fluorescence lifetime is 0.99 ns.

Regarding `COc1ccc(C#Cc2ccc(C#N)cc2)cc1`, the fluorescence lifetime is, setting by setting: (in C1COCCO1) 0.33 ns; (in CC#N) 0.76 ns; (in CCCCCC) 0.34 ns; (in CCCCCCC) 0.35 ns; (in CCCO) 0.6 ns; (in CCOC(C)=O) 0.38 ns. For the same compound, the fluorescence lifetime by setting is: (in CS(C)=O) 1.1 ns; (in ClC(Cl)Cl) 0.38 ns; (in ClCCl) 0.46 ns.

Compound `CC(C)(C)c1ccc2c(c1)c1cc(C(C)(C)C)ccc1n2-c1ccc(S(=O)(=O)c2ccc(-n3c4ccc(C(C)(C)C)cc4c4cc(C(C)(C)C)ccc43)cc2)cc1` displayed a fluorescence lifetime (in Cc1ccccc1) of 5.3 ns and a fluorescence lifetime under setting [1] of 7.6 ns.

In the case of `COc1cc(N(c2ccccc2)c2ccccc2)ccc1C=C(C#N)C#N`, the fluorescence lifetime is, setting by setting: (in C1COCCO1) 0.04 ns; (in CC#N) 0.02 ns; (in CC(C)=O) 0.05 ns; (in CCOC(C)=O) 0.07 ns; (in CN(C)C=O) 0.03 ns; (in CO) 0.02 ns. This compound also gave a fluorescence lifetime (in Cc1ccccc1) of 0.03 ns, a fluorescence lifetime (in ClC(Cl)Cl) of 0.1 ns and a fluorescence lifetime (in ClCCl) of 0.06 ns.

Take `Cc1cn(C(F)(F)F)c(=O)[nH]c1=O`: the fluorescence lifetime (in CC#N) is 0.0001 ns.

For `COC(=O)C(NC(=O)OC(C)(C)C)c1ccc2oc(-c3cc(OC)c(OC)cc3OC)nc2c1` (configuration not stated), the fluorescence lifetime (in CC1CCCCC1) stood at 1.27 ns, the fluorescence lifetime (in CC#N) was 1.78 ns and the fluorescence lifetime (in CO) was found to be 2.03 ns.

`Cc1ccc2c(c1)c1cc(C)ccc1n2-c1cccc(-n2c3ccc(C)cc3c3cc(C)ccc32)c1C#N`: the fluorescence lifetime (in Cc1ccccc1) came to 5.5 ns and the fluorescence lifetime under setting [1] came to 6.6 ns.

As for `COc1ccc(C(=O)c2c(C)c3ccc4cccc5c6cccc7ccc2c(c76)c3c45)cc1`, the fluorescence lifetime (in ClCCl) amounted to 5.6 ns.

In the case of `O=C([O-])COc1cc(NC(=O)c2ccc(-c3c4cc(Cl)c(=O)cc-4oc4cc(O)c(Cl)cc34)c(C(=O)[O-])c2)ccc1N(CC(=O)[O-])CC(=O)[O-]`, the fluorescence lifetime (in O) was 1.21 ns.

As for `CN(C)c1ccc(C#Cc2cc3ccc4cc(C#Cc5ccc(N(C)C)cc5)cc5ccc(c2)c3c45)cc1`, the fluorescence lifetime (in Cc1ccccc1) was 60 ns.

`Cc1nc(-c2ccc(N3c4ccccc4C(c4ccccc4)(c4ccccc4)c4ccccc43)cc2)cc(-c2ccc(N3c4ccccc4C(c4ccccc4)(c4ccccc4)c4ccccc43)cc2)n1` showed a fluorescence lifetime (in O=P(c1ccccc1)(c1ccccc1)c1ccc2oc3ccc(P(=O)(c4ccccc4)c4ccccc4)cc3c2c1) of 11 ns.

As for `CCOC(=O)CCCCCn1c2ccccc2c(=O)c2cc(N)ccc21`, the fluorescence lifetime (in O) was determined as 10.9 ns.

Turning to `ClP1(Cl)=N[P@](Cl)(Oc2ccc3ccc4cccc5ccc2c3c45)=N[P@@](Cl)(Oc2ccc3ccc4cccc5ccc2c3c45)=N1`, the fluorescence lifetime (in ClCCl) stood at 3.02 ns.

With `COc1cc2cc(OC)c(C#Cc3ccc([N+](=O)[O-])cc3)cc2cc1C#Cc1ccc([N+](=O)[O-])cc1`, the fluorescence lifetime by setting is: (in C1CCOC1) 0.25 ns; (in ClC(Cl)Cl) 0.9 ns; (in ClCCl) 0.38 ns.

In the case of `CC1(C)c2ccccc2N(c2ccc3c(c2)c2cc(N4c5ccccc5C(C)(C)c5ccccc54)ccc2c2nc4ccccc4nc32)c2ccccc21`, where the note is “in c1cc(-c2cccc(-n3c4ccccc4c4ccccc43)c2)cc(-n2c3ccccc3c3ccccc32)c1”, the fluorescence lifetime came to 58 ns.

For `CCCCCCCCOC(=O)c1ccc(-c2cc3ccc4cc(-c5ccc(C(=O)OCCCCCCCC)cc5)cc5ccc(c2)c3c45)cc1`, the fluorescence lifetime (in Cc1ccccc1) was determined as 49 ns.

In the case of `COc1ccc(C2=C(C)C3=C(c4c(-c5ccccn5)nc5ccccn45)c4c(C)c(-c5ccc(OC)cc5)c(C)n4[B-](F)(F)[N+]3=C2C)cc1`, where the note is “in ClCCl”, the fluorescence lifetime came to 3.5 ns.

On to `Cn1cccc1-c1ccc(C#N)cc1`, for which the fluorescence lifetime reads like this: (in CC#N) 5.4 ns; (in CCCCCC) 1.8 ns; (in CCOCC) 5.21 ns.

As for `COc1ccc(-c2cc(C)nc(-c3ccc(-n4c5ccccc5c5ccccc54)cc3)n2)cc1`, the fluorescence lifetime runs as follows: (in C1CCOC1) 2.56 ns; (in CN(C)C=O) 5.31 ns; (in Cc1ccccc1) 1.21 ns; (in ClC(Cl)Cl) 2.97 ns.

Consider `CCN(CC)c1ccc(/C=C/c2ccc(-c3ccc(/C=C/c4ccc(N(CC)CC)cc4)s3)s2)cc1`, for which the fluorescence lifetime worked out at 1.1 ns (in C1CCOC1); 1.14 ns (in CC#N); 1.11 ns (in CC(C)=O); 1.18 ns (in CN(C)C=O); 1.02 ns (in Cc1ccccc1).

The compound `CC1(C)C(/C=C/C2=C(Oc3ccc(CCN=C=S)cc3Br)C(=C/C=C3/N(CCCS(=O)(=O)[O-])c4ccccc4C3(C)C)/CCC2)=[N+](CCCS(=O)(=O)[O-])c2ccccc21` registered a fluorescence lifetime (in CO) of 0.912 ns.

Take `COc1ccc(-c2c3ccc([nH]3)c3nc(c(-c4ccc(C#N)cc4)c4ccc([nH]4)c4ccc([nH]4)c(-c4ccc(OC)cc4)c4ccc2o4)C=C3)cc1`: the fluorescence lifetime reads like this: (in C1CCOC1) 5.6 ns; (in Cc1ccccc1) 5.65 ns; (in c1ccccc1) 4.88 ns.

`CC(=O)Nc1ccccc1C(=O)OC1CC(C)CCC1C(C)C` (configuration not stated) returned a fluorescence lifetime (in C1CCCCC1) of 4 ns, a fluorescence lifetime (in CC#N) of 3.4 ns, a fluorescence lifetime (in CCO) of 3.6 ns and a fluorescence lifetime (in Cc1ccccc1) of 3.9 ns.

The compound `CC1=C(c2ccc(N(C)C)cc2)C(C)=[N+]2C1=C(c1c(-c3ccccn3)nc3ccccn13)c1c(C)cc(C)n1[B-]2(F)F` returned a fluorescence lifetime (in ClCCl) of 0.5 ns.

`COc1ccc(/C=C/C=C/C=C/c2ccc([N+](=O)[O-])cc2)cc1` came in with a fluorescence lifetime (in C1CCOC1) of 1.7 ns, a fluorescence lifetime (in C1COCCO1) of 1.9 ns, a fluorescence lifetime (in CC1CCCCC1) of 0.7 ns and a fluorescence lifetime (in Cc1ccccc1) of 1.5 ns.

Consider `COc1ccc(N(c2ccccc2)c2ccc3ccc4c(N(c5ccccc5)c5ccc(OC)cc5)ccc5ccc2c3c54)cc1`, for which the fluorescence lifetime (in ClCCl) was determined as 9 ns.

The compound `FC(F)(F)c1ccc(-c2nnc(-c3cc(-c4nnc(-c5ccc(C(F)(F)F)cc5)o4)c(-n4c5ccccc5c5ccccc54)cc3-n3c4ccccc4c4ccccc43)o2)cc1` displayed a fluorescence lifetime (in Cc1ccccc1) of 5.1 ns and a fluorescence lifetime under setting [1] of 8.6 ns.

For the setting “in ClCCl”, `c1ccc(N2N=C(c3c4ccccc4cc4ccccc34)CC2c2ccc3ccc4cccc5ccc2c3c45)cc1` (configuration not stated) registered a fluorescence lifetime of 1.17 ns.

Consider `CC1=[N+]2C(=C(c3ccc(N(C)C)cc3)c3ccc(C)n3[B-]2(F)F)C=C1`, for which the fluorescence lifetime was found to be 2.72 ns (in C1CCCCC1) and 3.24 ns (in Cc1ccccc1).

The compound `COc1cc(OC)cc(-c2ccc(-c3ccc(C#N)s3)s2)c1` registered a fluorescence lifetime (in C1CCCCC1) of 0.22 ns; a fluorescence lifetime (in C1COCCO1) of 0.23 ns; a fluorescence lifetime (in CC#N) of 0.24 ns; a fluorescence lifetime (in CC(C)O) of 0.23 ns; a fluorescence lifetime (in CCCCO) of 0.24 ns; a fluorescence lifetime (in CCO) of 0.24 ns. Also, the fluorescence lifetime reads like this: (in CCOC(C)=O) 0.22 ns; (in CN(C)C=O) 0.28 ns; (in CO) 0.25 ns; (in CS(C)=O) 0.35 ns; (in Cc1ccccc1) 0.22 ns; (in ClC(Cl)Cl) 0.22 ns. The compound also returned a fluorescence lifetime (in ClCCl) of 0.23 ns and a fluorescence lifetime (in O) of 1.02 ns.
